The values below come from publication PMC6332353, “New Sulphated Flavonoids from Wissadula periplocifolia (L.) C. Presl (Malvaceae)” (Molecules, 2015).

Converted amounts (≈) assume the structure as drawn.

The test system of assay [1] is human glioma cancer cell line (UVW). Put plainly: alamarBlue cytotoxicity assay, UVW cells. Particulars: tumour cell line, 24 h treatment, 0.4–100 µg/mL, mean ± SD. In kind it is cell-based. An excerpt:
(§1) All media and supplements were obtained from Invitrogen (Paisley, UK). The following human cell lines were used in the current study: the human glioma cancer cell line (UVW) previously described, the prostate carcinoma cell line (PC-3M), the normal prostate epithelial cell line (PNT2A), and the normal foreskin fibroblast cell line (Hs27). All cell lines were obtained from in house stocks (UVW) or from stocks purchased from the ATCC (Rockville, MD, USA) and are routinely genetically verified and confirmed as free from mycoplasma contamination. UVW, PNT2A, and Hs27 cells were maintained in Eagle’s Minimum Essential Medium (MEM), RPMI 1640 Medium, and Dulbecco’s Modified Eagle’s Medium (DMEM), respectively. All media were supplemented with 10% v/v fetal bovine serum, penicillin (100 units/mL), streptomycin (100 μg/mL), Fungizone (2.5 μg/mL of amphotericin B), and L-glutamine (2 mM). The PC-3M cells were cultured in the same MEM medium as described for UVW cells with the addition of 1% v/v MEM Non-essential Amino Acids Solution, 1% v/v MEM Vitamin Solution, and 1mM sodium pyruvate. The cells were cultured at 37 °C in a humidified atmosphere of 5% CO2.
(§2) Each sample tested was dissolved in DMSO at 50 mg/mL and kept at −20 °C until extract preparation was proceeded. For the biological assays, the samples were diluted in culture medium to get the selected concentrations. The toxicity of the flavonoids on UVW, PC-3M, PNT2A, and Hs27 cells was assessed by the fluorometric measurement of metabolic activity using the AlamarBlue assay (Invitrogen). Briefly, cells were seeded on 96-well culture plates (3.3 × 10^3cells/well). […] Fluorescence was measured on a micro plate fluorescence reader (Spectramax Gemini XS, Molecular Devices, Sunnyvale, CA, USA) using an excitation wavelength of 560 nm and an emission wavelength of 590 nm. Cell viability was calculated and plotted as the percentage of metabolically active cells relative to the control. […]
(In general: Alamar Blue is a resazurin reagent that responds to reducing activity.)

Assay [2] concerns prostate carcinoma cell line (PC-3M). Put plainly: alamarBlue cytotoxicity assay, PC-3M cells. The class given is cell-based. The conditions noted are these: Homo sapiens, tumour cell line, 24 h treatment, 0.4–100 µg/mL, mean ± SD.
Source text: as §1, §2

The subject of assay [3] is normal prostate epithelial cell line (PNT2A). Put plainly: alamarBlue cytotoxicity assay, PNT2A cells. In kind it is cell-based. Particulars: Homo sapiens, 24 h treatment, 0.4–100 µg/mL, mean ± SD.
Source text: as §1, §2

The test system of a further assay is sarcoma 180. Details: method as in earlier work. The conditions noted are these: tumours implanted in mice; cited from earlier work.
The subject of assay [4] is carcinoma of Ehrlich tumours. Details: method as in earlier work. Particulars: tumours implanted in mice; cited from earlier work.
A further assay deals with lung cancer A549. More on the design: method as in PMID 25000464. The conditions noted are these: cited from earlier work.
The subject of assay [5] is normal foreskin fibroblast cell line (Hs27). Kind of assay: alamarBlue cytotoxicity assay, Hs27 cells. In kind it is cell-based. The conditions noted are these: Homo sapiens, 24 h treatment, 0.4–100 µg/mL, mean ± SD. An excerpt: All media and supplements were obtained from Invitrogen (Paisley, UK). The following human cell lines were used in the current study: the human glioma cancer cell line (UVW) previously described, the prostate carcinoma cell line (PC-3M), the normal prostate epithelial cell line (PNT2A), and the normal foreskin fibroblast cell line (Hs27). All cell lines were obtained from in house stocks (UVW) or from stocks purchased from the ATCC (Rockville, MD, USA) and are routinely genetically verified and confirmed as free from mycoplasma contamination. UVW, PNT2A, and Hs27 cells were maintained in Eagle’s Minimum Essential Medium (MEM), RPMI 1640 Medium, and Dulbecco’s Modified Eagle’s Medium (DMEM), respectively. All media were supplemented with 10% v/v fetal bovine serum, penicillin (100 units/mL), streptomycin (100 μg/mL), Fungizone (2.5 μg/mL of amphotericin B), and L-glutamine (2 mM). […] The toxicity of the flavonoids on UVW, PC-3M, PNT2A, and Hs27 cells was assessed by the fluorometric measurement of metabolic activity using the AlamarBlue assay (Invitrogen). […] Fluorescence was measured on a micro plate fluorescence reader (Spectramax Gemini XS, Molecular Devices, Sunnyvale, CA, USA) using an excitation wavelength of 560 nm and an emission wavelength of 590 nm. Cell viability was calculated and plotted as the percentage of metabolically active cells relative to the control. […]

The IC50 is the point on the concentration scale where inhibition reaches its midpoint. Low values mean greater potency, high ones weaker potency. `O=C(/C=C/c1ccc(O)cc1)OC[C@H]1O[C@@H](Oc2c(-c3ccc(O)cc3)oc3cc(O)cc(O)c3c2=O)[C@H](O)[C@@H](O)[C@@H]1O` [tiliroside, kaempferol-3-O-b-D-(6′′-E-p-coumaroyl) glucopyranoside]: the IC50 is more than 100 µg/mL in assay [1], 60.5 ± 1.12 µg/mL (≈ 102 µM) in assay [2] and more than 100 µg/mL in assay [3]. The “tumour growth inhibition, sarcoma 180” value in the assay on sarcoma 180 is reported as “significantly inhibited the growth”. The “tumour growth inhibition, carcinoma of Ehrlich” value in assay [4] was “significantly inhibited the growth”. Moreover, the “toxic effects on A549 cells (in words)” value in the assay on lung cancer A549 was “toxic effects”.
As to `COc1ccc(-c2cc(=O)c3c(O)cc(O)cc3o2)cc1` [acacetin], the 50% inhibitory concentration (IC50) in assay [1] is 27.4 ± 1.09 µg/mL (≈ 96.3 µM); in assay [2], 21.1 ± 1.16 µg/mL (≈ 74.3 µM); in assay [3], 51.3 ± 1.09 µg/mL (≈ 181 µM); in assay [5], more than 100 µg/mL.
As for `COc1ccc(-c2cc(=O)c3c(O)cc(OC)c(O)c3o2)cc1` [7,4′-di-O-methylisoscutellarein], the IC50 in assay [1] is 98.5 ± 1.13 µg/mL (≈ 314 µM); in assay [2] it was more than 100 µg/mL; in assay [3], 88.7 ± 1.13 µg/mL (≈ 282 µM).
